Counter-ions that a name gives are not always drawn.
Target: T1, glycine binding site of the NMDA receptor channel (Rattus norvegicus, UniProt P35439)
T1 construct: from tissue; host or cells: rat brain cortex and hippocampus membrane homogenate (male Wistar rats)
Assay: Receptor binding studies, displacement of (3H)-MDL 105,519 from brain membrane homogenates
Details: for Displacement (%, 10 μmol) / inhibition at 10 µM: percentage of bonded radioactive ligand (3H)-MDL 105,519 displaced from specific binding at 10 μM of test substance; for Ki: glycine binding site of the NMDA receptor channel, rat cortex/hippocampus membrane homogenate, 1 nmol/l (3H)-MDL 105,519, from IC50 by Cheng-Prussoff equation; for inhibition at 10 µM: read-out: Displacement (%, 10 μmol)
Description: The tests to determine the affinity of the compounds of formula (I) according to the invention for the glycine binding site of the NMDA receptor channel were carried out on brain membrane homogenates (homogenate of cortex and hippocampus area from the brains of male rats, Wistar strain) (B. M. Baron, B. W. Siegel, B. L. Harrison, R. S. Gross, C. Hawes and P. Towers, Journal of Pharmacology and Experimental Therapeutics, (1996), Vol. 279, p. 62).
To that end, cortex and hippocampus from freshly removed rat brains were exposed and homogenized, while cooling with ice, in 5 mmol/l of TRIS acetate buffer, […] of saccharose pH 7.4 (10 ml/g fresh weight) using a Potter homogenizer (Braun/Melsungen; 10 piston strokes at 500 rpm) and then centrifuged for 10 minutes at 1000 g and 4° C. The first supernatant was collected and the sediment was again homogenized, while cooling with ice, with 5 mmol/l of TRIS acetate buffer, 0.32 mol/l of saccharose pH 7.4 (5 ml/g original fresh weight) using the Potter homogenizer (10 piston strokes at 500 rpm) and centrifuged for 10 minutes at 1000 g and 4° C. The resulting supernatant was combined with the supernatant from the first centrifugation and centrifuged for 20 minutes at 17,000 g and 4° C. The supernatant from this centrifugation was discarded and the membrane sediment was taken up in 5 mmol/l of TRIS acetate buffer pH 8.0 (20 ml/g original fresh weight) and homogenized with 10 piston strokes at 500 rpm.
The membrane homogenate was then incubated for one hour at 4° C. and centrifuged for 30 minutes at 50,000 g and 4° C. The supernatant was discarded and the centrifuge tube containing the membrane sediment was closed with Parafilm and frozen for 24 hours at −20° C. On the following day, the membrane sediment was thawed and taken up in 5 mmol/l of ice-cold TRIS acetate buffer, 0.1% saponin (w/v) pH 7.0 (10 ml/g original fresh weight) and homogenized with 10 piston strokes at 500 rpm and then centrifuged for 20 minutes at 50,000 g and 4° C. The resulting supernatant was discarded and the sediment was taken up in a small volume in 5 mmol/l of TRIS acetate buffer pH 7.0 (about 2 ml/g original fresh weight) and again homogenized with 10 piston strokes at 500 rpm. After determination of the protein content, the membrane homogenate was adjusted to a protein concentration of 10 mg of protein/ml with 5 mmol/l TRIS acetate buffer pH 7.0, and was frozen in aliquots until testing.
For the receptor binding test, aliquots were thawed, diluted 1:10 with 5 mmol/l of TRIS acetate buffer pH 7.0, homogenized, while cooling with ice, with 10 piston strokes at 500 rpm using the Potter homogenizer (10 piston strokes at 500 rpm) and centrifuged for 60 minutes at 55,000 g and 4° C. The supernatant was decanted off and the membrane sediment was adjusted to a protein concentration of 1 mg/ml with 50 mmol/l of ice-cold TRIS acetate buffer pH 7.0 and again homogenized with 10 piston strokes at 500 rpm and maintained in suspension in an ice-bath while stirring with a magnetic stirrer. Of that membrane homogenate, 100 μl per 1 ml batch were used in the receptor binding test (0.1 mg protein/ml in the final batch).
In the binding test, 50 mmol/l of TRIS acetate buffer pH 7.0 were used as the buffer, and 1 nmol/l of (^3H)-MDL 105,519 (B. M. Baron et al. 1996) was used as the radioactive ligand. The proportion of non-specific binding was determined in the presence of 1 mmol/l of glycine.
In further batches, the compounds according to the invention were added in series of concentrations and the displacement of the radioactive ligand from its specific binding to the glycine binding site of the NMDA receptor channel was determined. The respective triplicate batches were incubated for 120 minutes at 4° C. and then harvested by means of filtration through glass fiber filter mats (GF/B) for determination of the radioactive ligand bonded to the membrane homogenate. […]

| Displacement (%, 10 μmol) [%] | Ki [nM] | inhibition at 10 µM [%] | Compound | binding to the glycine binding site of the NMDA ion channel (statement in words) (general statement in the description, no values) |
| --- | --- | --- | --- | --- |
| 91 |  |  | CSCc1ccc(C(Nc2cc(Cl)cc(Cl)c2)C(=O)O)o1.Cl (centres unmarked) [Example 106-HCl, (3,5-Dichloro-phenylamino)-(5-methylsulfanylmethyl-furan-2-yl)-acetic acid hydrochloride] |  |
|  |  |  | COc1ccc(NC(C(=O)O)c2cccs2)cc1 (centres unmarked) [(4-methoxy-phenylamino)-thien-2-yl-acetic acid, reference compound] | bind selectively to the glycine binding site of the NMDA ion channel |
| 65 |  |  | CSCc1ccc(C(Nc2cc(Cl)cc(Cl)c2)C(=O)O)o1 (centres unmarked) [Example 106, (3,5-Dichloro-phenylamino)-(5-methylsulfanylmethyl-furan-2-yl)-acetic acid] |  |
|  | 5030 | 63 | Cc1ccc(C(Nc2cc(Cl)cc(Cl)c2)C(=O)O)s1 (centres unmarked) [Example 125-Na, (3,5-Dichlorophenylamino)-(5-methylthiophen-2-yl)-acetic acid sodium salt] |  |
|  | 470 | 103 | O=C(O)C(Nc1cc(Cl)cc(Cl)c1)c1ccc(CSSCc2ccco2)o1 (centres unmarked) [Example 120, (3,5-Dichlorophenylamino)-[5-(furan-2-ylmethyldisulfanylmethyl)-furan-2-yl]-acetic acid] |  |
|  | 2570 | 68 | O=C(O)C(Nc1cc(Cl)cc(Cl)c1)c1ccc(Cl)s1 (centres unmarked) [Example 127, (5-Chlorothiophen-2-yl)-(3,5-dichlorophenylamino)-acetic acid] |  |
|  |  | 45 | O=C(O)C(Nc1ccc(Cl)c(Cl)c1)c1ccc(CS)o1 (centres unmarked) [Example 114, (3,4-Dichloro-phenylamino)-(5-mercaptomethyl-furan-2-yl)-acetic acid] |  |
|  | 290 | 106 | CSSCc1ccc(C(Nc2cc(Cl)cc(Cl)c2)C(=O)O)o1 (centres unmarked) [Example 121, (3,5-Dichlorophenylamino)-(5-methyldisulfanylmethyl-furan-2-yl)-acetic acid] |  |
|  |  | 66 | O=C(O)C(Nc1cc(Cl)cc(Cl)c1)c1ccc(CO)s1 (centres unmarked) [Example 109, (3,5-Dichloro-phenylamino)-(5-hydroxymethyl-thiophen-2-yl)-acetic acid] |  |
|  | 120 | 104 | CC(=O)SCc1ccc(C(Nc2cc(Cl)cc(Cl)c2)C(=O)O)o1 (centres unmarked) [Example 110, (5-Acetylsulfanylmethyl-furan-2-yl)-(3,5-dichloro-phenylamino)-acetic acid] |  |
|  |  | 101 | O=C(O)C(Nc1cc(Cl)cc(Cl)c1)c1ccc(CS)o1 (centres unmarked) [Example 107, (3,5-Dichloro-phenylamino)-(5-mercaptomethyl-furan-2-yl)-acetic acid] |  |
|  |  | 44 | CCc1ccc(C(Nc2cc(Cl)cc(Cl)c2)C(=O)O)s1 (centres unmarked) [Example 111, (3,5-Dichloro-phenylamino)-(5-ethyl-thiophen-2-yl)-acetic acid] |  |
| 72 |  |  | O=C([O-])C(Nc1cc(Cl)cc(Cl)c1)c1ccc(Cl)s1.[Na+] (centres unmarked) [Example 127-Na, (3,5-Dichlorophenylamino)-(5-chlorothiophen-2-yl)-acetic acid sodium salt] |  |
| 78 | 2980 |  | CSCc1ccc(C(Nc2cc(Cl)cc(Cl)c2)C(=O)O)o1.[Na] (centres unmarked) [Example 106-Na, (3,5-Dichloro-phenylamino)-(5-methylsulfanylmethyl-furan-2-yl)-acetic acid sodium] |  |
|  |  | 91 | CC(C)(C)c1ccc(C(Nc2cc(Cl)cc(Cl)c2)C(=O)O)o1 (centres unmarked) [Example 119-HCl, (5-tert-Butylfuran-2-yl)-(3,5-dichlorophenylamino)-acetic acid hydrochloride] |  |
|  | 15400 | 52 | Cc1csc(C(Nc2cc(Cl)cc(Cl)c2)C(=O)O)c1 (centres unmarked) [Example 126, (3,5-Dichlorophenylamino)-(4-methylthiophen-2-yl)-acetic acid] |  |
|  |  | 99 | O=C(O)C(Nc1cccc(Cl)c1)c1ccc(CS)o1 (centres unmarked) [Example 113, (3-Chloro-phenylamino)-(5-mercaptomethyl-furan-2-yl)-acetic acid] |  |

| Compound | Displacement (%, 10 μmol) [%] | Ki [nM] | inhibition at 10 µM [%] | binding to the glycine binding site of the NMDA ion channel (statement in words) (general statement in the description, no values) |
| --- | --- | --- | --- | --- |
| CC(=O)OCc1ccc(C(Nc2cc(Cl)cc(Cl)c2)C(=O)O)o1 (centres unmarked) [Example 123, (5-Acetoxymethylfuran-2-yl)-(3,5-dichlorophenylamino)-acetic acid] |  | 5030 | 60 |  |

— patent US6797712B2, “Substituted amino-furan-2-yl-acetic acid and amino-thien-2-yl-acetic acid derivatives and their use in the treatment of migraine and pain” (Gruenenthal GmbH, priority 2000, dated 2004)
